In one test the test system is C57Bl/6J wild-type mice. Put plainly: In vivo pharmacodynamics, lactate biosensors (cerebral extracellular lactate). The note with it: 3 h recording, AUC ratio vs vehicle. Details: species or system mouse. How it is done:
(§1) For pharmacodynamics (FIG. 5) and cognition (FIG. 7) experiments, adult male C57Bl/6J wild-type mice weighting 18-28 g (8 weeks of age) were used (Charles River). For ALS mouse models (FIG. 6), G93A SOD1 transgenic male and female mice on B6.SJL1-Gur/J background were used (Jackson Laboratory).
(§2) Animals were housed in groups of 3-5 in polypropylene cages (30×40×15 cm) with wire mesh top in a temperature (22±2° C.) and humidity (55±15%) controlled environment on a 12 hour light cycle (07.00-19.00 h lights on), except after surgeries when animal were housed individually. […]
Cerebral extracellular levels of lactate were monitored in vivo using lactate biosensors (Pinnacle Technology), according to the manufacturer's instructions. […] After surgery, mice were monitored closely and received analgesic treatment for at least 4 days. […] Concentrations of cerebral extracellular lactate were calculated from lactate probe electric signals using post-calibration values. […] Area Under the Curve (AUC) of lactate concentration curves were calculated using Graphpad Prism and the ratio of AUC after drug over Vehicle administration was calculated. Extracellular concentrations of L-lactate were measured in real time in freely moving animals for 3 hours after administration of Vehicle or Compound (1) (FIG. 5).

Test [1] concerns G93A SOD1 transgenic mice. Put plainly: SOD1 G93A mouse ALS model (grip test, survival). The format is in vivo. The protocol:
as §1, §2
Transgenic mice on B6.SJL1-Gur/J background overexpressing the human mutated gene G93A SOD1 were used. […] F1 pups were genotyped after ear punching at weaning, using quantitative PCR (qPCR), which allowed determining the number of SOD1 copies in each mouse. […] Each mouse's weight was recorded every day throughout the entire treatment, while neuromuscular function was measured once a week. […]
The experiment was conducted in a room with a low light intensity (30 lux) to reduce stressful environment. […] Mice ability to grip the grid (time [s]) was measured in order to assess for their muscle strength and coordination. […]

Test [2] deals with astrocytes transfected with scramble siRNA. Put plainly: 2-deoxyglucose (2DG) uptake, scramble siRNA astrocytes. The format is cell-based, mouse. The following applies: 30 min treatment, 1 or 10 μM, vs vehicle. The protocol:
Astrocytes grown on 12-well plates and transfected with either scramble siRNA or GLUT1 siRNA were used. 1 day after having replaced transfection medium (DIV13), 2DG uptake was measured after treatment for 30 min with Vehicle (0.1% DMSO) or with the compound of the invention (1) (concentrations of 1 or 10 μM). During treatment, 1 mM 2DG was added to the medium for assessment of 2DG uptake. At the end of the stimulation, medium was removed and replaced with 150 μl NaOH 0.1M, and stored at −20° C. After thawing, cells were collected using cell scraper and heated for 40 min at 85° C. Then, 150 ul HCl 0.1M and TAE buffer 200 mM was added to each condition. 20 μl were added to a transparent 96-well plate and 2DG was quantified by addition of a reaction solution containing 50 mM TAE, 50 mM KCl, 0.02% BSA, 0.1 mM NADP, 0.2 U/ml diaphorase, 2 mM resazurin and 20 U/ml glucose-6-phosphate dehydrogenase. Concentration of 2DG in samples were calculated by comparison with standard curve of deoxy-glucose-6-phosphate ranging from 0 to 1 nmoles.
Scramble and GLUT1 siRNA sequences were as following:
Cells were grown in transfection medium for 3 days at 37° C. in a humidified atmosphere containing 5% CO2/95% air. […]
2DG uptake after treatment with Veh or compound of the invention (1) was measured in astrocytes transfected with scramble siRNA or GLUT1 siRNA (FIG. 4A).

Consider `COc1cc2ccnc(Nc3ccc(OC(F)(F)F)cc3)c2cc1OC` [Example 1, 6,7-dimethoxy-N-(4-(trifluoromethoxy)phenyl)isoquinolin-1-amine], for which the “Extracellular lactate levels in the brain” value in the test with C57Bl/6J wild-type mice (10 mg/kg per os) and in the test on C57Bl/6J wild-type mice (100 mg/kg per os) was “significantly increases extracellular lactate levels” in each case. Besides, in test [1] (10 mg/kg oral daily from post-natal day 30, measured weekly until 16 weeks of age), the “Muscle function (grip test), onset of symptoms” value is on record as “delayed the onset of the symptoms”. Also, the “Survival (life span, Kaplan-Meier)” value in test [1] (10 mg/kg oral daily from post-natal day 30, vs vehicle) is on record as “significantly increased life span”. Besides, the 2DG uptake result in test [2] is listed as “significantly enhances 2DG uptake”.

The values above are taken from US11925632B2, “Isoquinoline derivatives for use in treating GLUT1 deficiency syndrome” (GLIAPHARM SA, priority 2019, dated 2024).
